According to paper PMC10294627, “PhoPQ Regulates Quinolone and Cephalosporin Resistance Formation in Salmonella Enteritidis at the Transcriptional Level” (mBio, 2023):
Where two headings read alike, the source gives them in different places.

Columns and labels:
His-tagged PhoQ = biological target: T1, His-tagged PhoQ (Salmonella enterica, UniProt P0DM80); assay: Phos-tag gel autophosphorylation, membrane extract, anti-His blot; assay type: biochemical; settings: with ATP, in vitro
T1 construct: 6xHis-tagged PhoQ, no truncation stated, in membrane extracts of E. coli DH5alpha; anti-His read-out; dimeric histidine kinase

[1] = biological target: T2, PhoQ^SD (periplasmic sensor domain of PhoQ) (Salmonella enterica, UniProt P0DM80); assay: differential scanning calorimetry; assay type: binding; settings: 20 μM protein, 100 μM ligand, 10 mM sodium phosphate pH 7.4; Tm of complex, apo Tm 52.29 °C
T2 construct: periplasmic sensor domain (residues 45-188 as aligned; exact construct borders in supplement), His-tagged, pET28a, E. coli BL21, Ni-NTA purified, dimer by native-PAGE

[2] = biological target: T2, PhoQ^SD (periplasmic sensor domain of PhoQ); assay: microscale thermophoresis; assay type: binding
Excerpt: microscale thermophoresis on PhoQ^SD (periplasmic sensor domain of PhoQ) | NAL, CAZ, or ofloxacin, we also obtained well-fitted curves

[3] = biological target: periplasmic sensor domain of PhoQ (PhoQ^SD), His-tagged, S. Enteritidis (Salmonella Enteritidis); assay: native gel or EMSA; native-PAGE of PhoQ^SD expressed in E. coli BL21; data not shown

## CO/N=C(\C(=O)N[C@@H]1C(=O)N2C(C(=O)[O-])=C(C[N+]3(C)CCCC3)CS[C@H]12)c1csc(N)n1 [cefepime]
His-tagged PhoQ
  Phos-tag gel autophosphorylation, membrane extract, anti-His blot: cephalosporins (ceftazidime, ceftriaxone, and cefepime) or ATP

## CC(C)(O/N=C(\C(=O)N[C@@H]1C(=O)N2C(C(=O)[O-])=C(C[n+]3ccccc3)CS[C@H]12)c1csc(N)n1)C(=O)O [ceftazidime]
[1]
  Tm: 50.54 °C
[2]
  Kd: 25.6 ± 13.4 µM

## CO/N=C(\C(=O)N[C@@H]1C(=O)N2C(C(=O)O)=C(CSc3nc(=O)c(=O)[nH]n3C)CS[C@H]12)c1csc(N)n1 [ceftriaxone]
His-tagged PhoQ
  Phos-tag gel autophosphorylation, membrane extract, anti-His blot: cephalosporins (ceftazidime, ceftriaxone, and cefepime) or ATP

## O=C(O)c1cn(C2CC2)c2cc(N3CCNCC3)c(F)cc2c1=O [ciprofloxacin]
His-tagged PhoQ
  Phos-tag gel autophosphorylation, membrane extract, anti-His blot: treated with quinolones (nalidixic acid, ciprofloxacin, and ofloxacin)

## CCn1cc(C(=O)O)c(=O)c2ccc(C)nc21 [nalidixic acid]
[1]
  Tm: 51.00 °C
[2]
  Kd: 24.7 ± 4.3 µM

## CC1COc2c(N3CCN(C)CC3)c(F)cc3c(=O)c(C(=O)O)cn1c23 (stereo not drawn) [ofloxacin]
[2]; read-out: Kd
  Kd: 33.1 ± 28.3 µM

## periplasmic sensor domain of PhoQ (PhoQ^SD), His-tagged, S. Enteritidis (domain or fragment)
[3]
  stoichiometry N: 2
